Experimental findings from US20120238488A1, “COMPOUNDS AND METHODS FOR TREATING NEOPLASIA” (priority 2009, published 2012) are described below.

Test [1] deals with 22 different cell lines, nine tumor panels (lung, melanoma, ovary, prostate, CNS, breast, pancreas colon and renal). Nature of the test: SRB assay, all tumor cell line panels (summary statements). Format: cell-based, human. Particulars: lung, breast, CNS, colon, prostate, ovary, pancreas, kidney and melanoma lines, including a multidrug resistant cell line. As for the experimental part:
(§1) SRB assays were performed according to standard National Cancer Institute Guidelines. Briefly, human tumor cells from different cancer panels were seeded into 96 well plates in 100 μL (plating densities ranging from 5-40,000 cells/well depending on the doubling time of individual cell lines) in serum-containing media for twenty-four hours prior to the addition of the compounds to be assayed. After 24 hours, one plate of each cell line was fixed in situ with trichloroacetic acid (TCA). The fixed slides were used to determine the cell population for each cell line at the time of drug addition (Tz). Each compound to be tested was solubilized in DMSO and the desired concentration was then added to the medium and diluted serially 1:10 to provide a total of five or ten drug concentrations plus control (in a final volume of 200 μL). The starting dose before any dilution was 100 uM for all compounds.
(§2) Following drug addition, each culture was incubated for forty-eight hours. The assay was terminated with the addition of cold TCA. The supernatant was discarded, and the plates were washed with tap water and air dried. Sulforhodamine B (SRB) solution was then added to each well. After staining, the bound stain was solubilized and the absorbance was read on an automated plate reader at a wavelength of 515 nm.
(§3) Using the absorbance measurements [time zero, (Tz), control growth, (C), and test growth in the presence of drug at the ten concentration levels (Ti)], the percentage growth was calculated at each of the drug concentrations levels. Percentage growth inhibition was calculated as:
Three dose response parameters were calculated for each experimental agent. […] The drug concentration resulting in total growth inhibition (TGI) was calculated from Ti=Tz. The LC50 (concentration of drug resulting in a 50% reduction in the measured protein at the end of the drug treatment as compared to that at the beginning) indicating a net loss of cells following treatment was calculated from [(Ti−Tz)/Tz]×100=−50.
Each of these parameters in Table 4 was calculated in a sulforhodamine B (SRB) assay, which provides a colorimetric measure of a compound's anti-cancer activity. SRB assays were performed with compounds of the invention in 22 different cell lines (shaded in light gray in Table 4), which represent nine different tumor panels (lung, melanoma, ovary, prostate, CNS, breast, pancreas colon and renal). […] Paclitaxel was added as a non-Na^+K^+-ATPase inhibitor control.
A general note: In SRB staining, fixed cells bind dye roughly in proportion to their protein.

Test [2] concerns membrane androgen receptor. Briefly: Membrane androgen receptor competition assay, DU145 cells. Format: binding. The note with it: 40 μM compound 30 minutes before 40 μM testosterone-HSA-FITC, FIGS. 3B, 3C. The source says:
To assess whether compounds of the invention were capable of binding directly to the membrane androgen receptor, a fluorescent-based assay was used to measure the ability of a given compound to preclude binding of a fluorescent mAR ligand (testosterone-HSA-FITC conjugates) to its receptor in LNCaP and DU145 cells (see Kampa, M et al, 2002, Faseb J 16:1429-1431, and PCT/U52007/007913).
The detection of membrane androgen receptors using fluorescent testosterone-serum albumin conjugates was performed as described by Kampa, M et al, 2002, Faseb J 16:1429-1431, with minor modifications. Briefly, LNCaP or DU145 prostate cancer cells were cultured on 0.1% gelatin-coated glass coverslips in RPMI 1640 medium supplemented with 2 mM L-Glutamine, 10% Fetal Bovine Serum and 1% Penicillin/Streptomycin for at least 48 hours until reaching 70% confluency. After a 24 hour serum starvation period, cells were incubated with 40 μM testosterone-HSA-FITC for 1 hour at room temperature. The cells were then washed three times with phosphate buffered saline (PBS) and fixed with 3.7% formaldehyde in PBS for 5 minutes at room temperature. Human serum albumin-FITC was used as a control for background staining. […] Coverslips were mounted on slides by using the Slow Fade/Antifade Reagent (Molecular Probes) and studied under a LEICA DMLB microscope, equipped with the appropriate fluorescence filters and a Leica DC 300F camera. Specimens were analyzed using the Leica FW4000 computer program.
To determine the capacity of a given compound to preclude binding of fluorescent testosterone-HSA conjugates (TAC) to the membrane androgen receptor, starved LNCaP or DU145 cells on coverslips prepared as described above were pre-treated with 40 μM of the indicated compound for 30 minutes prior to the addition of testosterone-HSA-FITC. […] Specimens were prepared and analyzed as described above. Compounds binding to the membrane androgen receptor preclude binding of fluorescent testosterone-HSA conjugates to their target and abolish membrane-specific fluorescence.

Another test concerns H160 (Lung). Nature of the test: SRB assay, H160. Format: cell-based, human. Particulars: 48 h. As for the experimental part:
as §1, §2, §3
(§4) [(Ti−Tz)/(C−Tz)]×100 for concentrations for which Ti>/=Tz
(§5) [(Ti−Tz)/Tz]×100 for concentrations for which Ti<Tz.
(§6) Three dose response parameters were calculated for each experimental agent. Growth inhibition of 50% (GI50) was calculated from [(Ti−Tz)/(C−Tz)]×100=50, which was the drug concentration resulting in a 50% reduction in the net protein increase (as measured by SRB staining) in control cells during the drug. The drug concentration resulting in total growth inhibition (TGI) was calculated from Ti=Tz. The LC50 (concentration of drug resulting in a 50% reduction in the measured protein at the end of the drug treatment as compared to that at the beginning) indicating a net loss of cells following treatment was calculated from [(Ti−Tz)/Tz]×100=−50.
(§7) Values were calculated for each of these three parameters when the level of activity was reached; however, if the effect was not reached or was exceeded, the value for that parameter was expressed as greater or less than the maximum or minimum concentration tested.
(§8) Table 4 summarizes results characterizing the effects of compound Nos. 120, 12, 61, 1, and 56 on GI50, which measures the cell growth inhibitory power of the compound, TGI, which measures cytostatic effect (TGI) and LC50, which signifies cytotoxic effect. Each of these parameters in Table 4 was calculated in a sulforhodamine B (SRB) assay, which provides a colorimetric measure of a compound's anti-cancer activity. SRB assays were performed with compounds of the invention in 22 different cell lines (shaded in light gray in Table 4), which represent nine different tumor panels (lung, melanoma, ovary, prostate, CNS, breast, pancreas colon and renal). Ouabain and digoxin were used as controls. Paclitaxel was added as a non-Na^+K^+-ATPase inhibitor control.

The test system of a further test is HCT116 (Colon). Nature of the test: SRB assay, HCT116. Format: cell-based. Particulars: Homo sapiens. As for the experimental part:
as §1, §2, §3, §4, §5, §6, §7, §8

In the next test the test system is SF268 (CNS). Briefly: SRB assay, SF268. It is filed as cell-based. Particulars: Homo sapiens. How it is done: as §1, §2, §3, §4, §5, §6, §7, §8
In another test the test system is PCJ (Prostate). Briefly: SRB assay, PCJ. It is filed as cell-based. The note with it: Homo sapiens, 48 h. As for the experimental part: as §1, §2, §3, §4, §5, §6, §7, §8
Another test concerns MCF7 (Breast). Nature of the test: SRB assay, MCF7. Format: cell-based, human. How it is done:
as §1, §2, §3, §4, §5, §6, §7, §8

Regarding `C[C@]12CCC(=NOCCn3cc(CN)nn3)CC1CCC1C2CC[C@]2(C)C(=O)CCC12` (stereo partly drawn) [Compound 31, (10S,13S)-3-(2-(4-(aminomethyl)-1H-1,2,3-triazol-1-yl)ethoxyimino)-10,13-dimethyltetradecahydro-1H-cyclopenta[a]phenanthren-17(2H)-one], the “viability and/or cell proliferation of neoplastic cell lines” value in test [1] was “reduced the viability and/or cell proliferation”.

As to `C[C@]12CC[C@H](O)C[C@H]1CC[C@@H]1[C@@H]2CC[C@]2(C)[C@@](O)(c3ccoc3)CC[C@]12O` [rostafuroxin, reference compound], the “membrane fluorescence of TAC-FITC after pre-treatment (binding to mAR precluded)” value in test [2] is reported as “failed to block binding of TAC-FITC to mAR”.

Turning to `C[C@@H]1O[C@@H](O[C@H]2C[C@@H](O)[C@]3(CO)[C@H]4[C@H](O)C[C@]5(C)[C@@H](C6=CC(=O)OC6)CC[C@]5(O)[C@@H]4CC[C@]3(O)C2)[C@H](O)[C@H](O)[C@H]1O` [Ouabain, reference compound], the TGI in the test on H160 (Lung) (H160, SRB) came out at 100 nM; in the test on MCF7 (Breast) (MCF7, SRB, 48 h) it was 200 nM. Moreover, the CC50 with H160 (Lung) (Homo sapiens, read-out: LC50) was 300 nM; with HCT116 (Colon) (HCT-116, 48 h, read-out: LC50), greater than 50000 nM; with SF268 (CNS) (SF-268, 48 h, read-out: LC50), 300 nM; with PCJ (Prostate) (read-out: LC50) it was 300 nM; with MCF7 (Breast) (Homo sapiens, MCF7, 48 h, read-out: LC50), 300 nM. The concentration for 50% growth inhibition (GI50) with H160 (Lung) (Homo sapiens, H160, SRB) was less than 80 nM; in the test on HCT116 (Colon) (HCT-116, HCT116, SRB, 48 h) it was less than 80 nM; with SF268 (CNS) (SF-268, SF268, SRB, 48 h, read-out: GI50), less than 80 nM; in the test on PCJ (Prostate) (PCJ, SRB), less than 80 nM; with MCF7 (Breast) (Homo sapiens, MCF7, SRB, 48 h), less than 80 nM. The IC (TGI) in the test on HCT116 (Colon) (HCT-116, HCT116, SRB, 48 h) worked out at 4500 nM; in the test with SF268 (CNS) (SF-268, SF268, SRB, 48 h, read-out: TGI) it was 100 nM; in the test with PCJ (Prostate) (PCJ, SRB), 100 nM.

Usually TGI stands for the concentration giving total growth inhibition. Low values mean more potent growth arrest, high ones less potent growth arrest. A word on the GI50: it is the concentration giving 50% growth inhibition.
